16 compounds from PubChem BioAssay (NCI) can be followed below.

The structures appear in SMILES notation. “And” between values parts separate entries of the source, which are not always exact repeats. Equal values may be shown once.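 48-hour exposure; five concentrations; linearly interpolated endpoints. GI50: concentration for 50% inhibition of growth. TGI: total growth inhibition.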 Bounds are passed on as bounds.

What all share (assay): inhibition of tumour cell growth, NCI panel, 48 h
Assay [1] concerns T-47D breast.
For assay [2], the system named is MDA-MB-231 breast.
Assay [3] relates to PC-3 prostate.
In assay [4] the test system is DU-145 prostate.
Assay [5] deals with HS 578T breast.

For `COc1ccc([C@@]23Oc4cc(OC)cc(OC)c4[C@]2(O)[C@H](O)[C@H](C(=O)N(C)C)[C@H]3c2ccccc2)cc1`, the TGI in assay [1] was 0.044 µM and 0.0052 µM; in assay [2], 0.049 µM and 0.00949 µM and 0.0756 µM; in assay [4], 0.0635 µM and 0.0375 µM and 0.219 µM. Also, the GI50 in assay [2] is 0.0231 µM; in assay [3], 17.3 nM; in assay [4], 0.0135 µM; in assay [5], 0.0225 µM.
On to `N=C(N)n1cc(/C=N/N=C(N)N)cn1`, for which the TGI in assay [1], in assay [2], in assay [3], in assay [4] and in assay [5] was above 100 µM each time.
For `S=C(Sc1ccc(Cl)cc1)Sc1ccc(Cl)cc1`, the GI50 in assay [1] was 1.94 µM; in assay [2], 2.19 µM; in assay [3] it was 1580 nM; in assay [4], 3.6 µM; in assay [5] it was 3.96 µM. The TGI in assay [1] was found to be 5.72 µM; in assay [2], 4.36 µM; in assay [3] it was 3.34 µM; in assay [4] it was 11.4 µM; in assay [5], 16.3 µM.
As for `[O-][n+]1c2cccc(O)c2[n+]([O-])c2cccc(O)c21`, the TGI in assay [1], in assay [3], in assay [4] and in assay [5] was above 100 µM throughout.
For the compound `OCCNc1nc2ccccc2c2[nH]c3ccccc3c12`, the GI50 was 0.366 µM in assay [1]; 0.611 µM in assay [2]; 1100 nM in assay [3]; 0.659 µM in assay [4]; 0.71 µM in assay [5]. Besides, the TGI in assay [1] stood at 2.29 µM; in assay [2], 3.63 µM; in assay [3] it was 16.9 µM; in assay [4], 12.5 µM; in assay [5], 4.57 µM.
For `COc1cc([C@@H]2c3cc4c(cc3[C@H](SC(=N)N)[C@H]3COC(=O)[C@H]23)OCO4)cc(OC)c1OC`, the GI50 in assay [1] was 66.7 µM; in assay [2], 0.388 µM; in assay [3] it was 381 nM; in assay [5], 0.264 µM. For the same compound, the TGI in assay [1], in assay [2], in assay [3] and in assay [5] was above 100 µM throughout.
Consider `OCc1ccc(-c2ccc(-c3ccc(CO)o3)o2)o1`, for which the GI50 in assay [1] is 22.7 µM; in assay [2], 33.1 µM; in assay [3], above 100000 nM; in assay [4], above 62.4 µM; in assay [5] it was above 31.2 µM. The TGI is above 100 µM in assay [1]; above 100 µM in assay [2]; above 100 µM in assay [3]; above 100 µM in assay [4]; above 62.6 µM in assay [5].
For the compound `O=C1Nc2ccc(-c3cccnc3)cc2/C1=C/c1cc(Br)c(O)c(Br)c1`, the GI50 in assay [1] is 10.6 µM; in assay [2] it was 7.41 µM; in assay [3], 9050 nM; in assay [4], 6.28 µM; in assay [5] it was 5.67 µM. Besides, the TGI in assay [1] is above 25 µM; in assay [2], above 25 µM; in assay [3], above 25 µM; in assay [4], above 25 µM; in assay [5] it was above 22 µM.
`O=C(CI)NC(=O)NC(=O)NCc1ccccc1`: the GI50 in assay [1] is 2.48 µM; in assay [2], 3.9 µM; in assay [3] it was 15100 nM; in assay [5], 20.9 µM. Also, the TGI in assay [1] worked out at 6.7 µM; in assay [2], 15.7 µM; in assay [3] it was 30.7 µM; in assay [5], 72.4 µM.
In the case of `Nc1nc(Cl)c2ncn(Cc3ccc(C45CC6CC(CC(C6)C4)C5)c(OCc4cc(F)c(F)cc4F)c3)c2n1`, the GI50 in assay [1] was 6.75 µM; in assay [2] it was 2.58 µM; in assay [3], 1000 nM; in assay [4], 4.08 µM; in assay [5] it was 12.1 µM. Moreover, the TGI in assay [1] was 44.8 µM; in assay [2] it was 9.81 µM; in assay [3], 3.98 µM; in assay [4], 15.7 µM; in assay [5], 71.3 µM.
For `O=c1[nH]c2ccccc2cc1-c1nnc(Cc2ccccc2)o1`, the GI50 was 3.04 µM in assay [1]; 3.29 µM in assay [2]; 4160 nM in assay [3]; 5.18 µM in assay [4]; 13.3 µM in assay [5]. The TGI is 17.1 µM in assay [1]; 14.7 µM in assay [2]; 70.6 µM in assay [3]; 18.5 µM in assay [4]; above 100 µM in assay [5].
On to `Nc1nc(-c2ccccc2)c(CC(=O)O)s1`, for which the TGI in assay [1], in assay [2], in assay [3], in assay [4] and in assay [5] was above 100 µM each time.
For the compound `CCN(CC)CCCC(Nc1c2ccc(Cl)cc2nc2ccc(OC)cc12)c1ccc(Cl)cc1` (centres undefined), the GI50 is 1.85 µM in assay [1], 0.67 µM in assay [2], 1550 nM in assay [3] and 1.52 µM in assay [4]. Also, the TGI in assay [1] was 3.96 µM; in assay [2] it was 2.24 µM; in assay [3] it was 3.04 µM; in assay [4], 3.03 µM.
Turning to `Cc1ccccc1Nc1cc(O)c2c(=O)cc(-c3ccccc3)oc2c1`, the GI50 in assay [1] is 2.96 µM; in assay [2], 3.58 µM; in assay [3] it was 3300 nM; in assay [4] it was 3.78 µM. Also, the TGI in assay [1], in assay [2], in assay [3] and in assay [4] was above 100 µM throughout.
In the case of `OCC1OC(OC2(CO)OC(CO)C(O)C2O)C(O)C(O)C1O` (centres undefined), the GI50 is above 100 µM in assay [1], above 100 µM in assay [2], above 100000 nM in assay [3] and above 100 µM in assay [4]. The TGI in assay [1], in assay [2], in assay [3] and in assay [4] was above 100 µM throughout.
For the compound `O=C(O)c1ccccc1NCn1nc(-c2ccccc2O)oc1=S`, the GI50 in assay [1] was 68.7 µM; in assay [2], 16.8 µM; in assay [3] it was 43600 nM; in assay [5] it was above 100 µM. In addition, the TGI was above 100 µM in assay [1], 47.8 µM in assay [2], above 100 µM in assay [3] and above 100 µM in assay [5].
